How the values were obtained:
CT26 tumor = test: oHSV animal model: tumor volume in syngeneic bilaterally-inoculated subcutaneous CT26 tumor-bearing mice; format: in vivo, Balbc/j mice
Protocol: Assessment of the efficacy of an oncolytic virus treatment in the presence and absence of a potential virostatic test compound (Example 7(-)) in a syngeneic bilaterally-inoculated subcutaneous CT26 tumor-bearing mouse model.
CT26 tumor cells (500 000 cell in 100 μL) were subcutaneously inoculated bilaterally into the right and left flanks of 9 week-old immuno-competent female Balbc/j mice after 20 days acclimation (Provider: Charles River Laboratories—BP 0109—F 69592 L'Arbresle Cedex).
The inoculation procedure of colorectal CT26 tumors in mice was as follows: • At the end of the 20 days acclimation period, and in order to identify the animal all along the experimental procedure (for tumor volume monitoring in particular), mice were identified using tattoo. • The day before tumor cell inoculation, mice have been shaved at the injection sites, under isoflurane gas anesthesia (4% induction and 2% maintain). • The day of inoculation, mice were anesthetized with gas anesthesia with 4% isoflurane induction and 2% isoflurane for anesthesia maintaining. • Tumor cells to be inoculated were resuspended in sterile PBS and the needed volume was loaded in 1 ml syringe with a 26 gauge needle (500000 cells/100 μL).
Virus injection (with HSV-1 Herpes Simplex Virus or vehicle) was performed with a 29G gauge needle (0.5 mL) insulin syringe when tumors reached an average volume of 40 mm^3(on day 7). At this time, virus was injected intratumorally (50 μL corresponding to 5×10^6 HSV-1 (experimental groups 3, 5, 6 and 8) or 100 μL corresponding to 1×10^8 HSV-1 (experimental groups 4 and 7)), into the tumor of the right flank.
Pharmacological animal groups (8 animal per group, 64 animals in total) were organized as such: • 1. Control virus-untreated group: test compound vehicle (200 μL, 5% DMSO; 0.5% hydroxypropylmethylcellulose (HPMC) in PBS) oral gavage (20 gauge needle standard suspension applicator), once a day, for 10 days and starting 72 h after virus injection for the other groups. • 2. Control virus vehicle-treated group: 50 μL of virus vehicle, intratumoral injection when tumors reached an average volume of app. 40 mm^3, with test compound vehicle, oral gavage, once a day, for 10 days and starting 72 h after vehicle virus injection. • 3. HSV-1 (quantity 1; 5×10^6 pfu)-treated group: 50 μL of HSV-1 (5×10^6), intratumoral injection when tumors reached an average volume of app. 40 mm^3, with test compound vehicle, oral gavage, once a day, for 10 days and starting 72 h after virus injection, and with anti-PD1/anti-CTLA4 vehicle, intraperitoneal injection (200 μL PBS) on the same day as the virus injection, and then 3 administrations spaced 3 days apart each other (day 7, 10, 13 and 16). • 4. HSV-1 (quantity 2; 1×10^8 pfu)-treated group: 100 μL of HSV-1 (1×10^8) intratumoral injection when tumors reached an average volume of app. 40 mm^3, with test compound vehicle, oral gavage, once a day, for 10 days and starting 72 h after virus injection. • 5. HSV-1 (quantity 1; 5×10^6 pfu)-test compound-treated group: 50 μL of HSV-1 (5×10^6), intratumoral injection when tumors reached an average volume of app. 40 mm^3, with Example 7(-) (10 mg/kg, 20 mg/mL stock in DMSO, final 1 mg/mL, 5% DMSO; 0.5% HPMC in PBS (w/v), the suspension has been sonicated (2 min ultrasound bath, room temperature)), oral gavage (200 μL), once a day, for 10 days and starting 72 h after virus injection, and with anti-PD1/anti-CTLA4 vehicle, intraperitoneal injection (200 μL, PBS) on the same day as the virus injection, and then 3 administrations spaced 3 days apart each other (day 7, 10, 13 and 16). • 6. […]

[1] = in vivo; cited from earlier work
HSV-1 = test: In vitro activity, HSV-1 infected Vero cells; format: cell-based; settings: Human alphaherpesvirus 1, Vero
Protocol: (§1) The in vitro activity of the new compounds was measured as described in WO2017/174640 and in WO2019/068817.

HSV-2 = test: In vitro activity, HSV-2 infected Vero cells; format: cell-based; settings: Human alphaherpesvirus 2, Vero
Protocol: as §1

[2] = day 0, with HSV-1 1·10^8, 10 mg/kg po from 72 h pi
[3] = day 0, with HSV-1 5·10^6, 10 mg/kg po from 0 h pi
[4] = day 0, with HSV-1 5·10^6, 10 mg/kg po from 72 h pi
[5] = day 5, with HSV-1 1·10^8, 10 mg/kg po from 72 h pi
[6] = day 5, with HSV-1 5·10^6, 10 mg/kg po from 0 h pi
[7] = day 5, with HSV-1 5·10^6, 10 mg/kg po from 72 h pi
[8] = day 7, with HSV-1 1·10^8, 10 mg/kg po from 72 h pi
[9] = day 7, with HSV-1 5·10^6, 10 mg/kg po from 0 h pi
[10] = day 7, with HSV-1 5·10^6, 10 mg/kg po from 72 h pi
[11] = day 10, with HSV-1 1·10^8, 10 mg/kg po from 72 h pi
[12] = day 10, with HSV-1 5·10^6, 10 mg/kg po from 0 h pi
[13] = day 10, with HSV-1 5·10^6, 10 mg/kg po from 72 h pi
[14] = day 12, with HSV-1 1·10^8, 10 mg/kg po from 72 h pi
[15] = day 12, with HSV-1 5·10^6, 10 mg/kg po from 0 h pi
[16] = day 12, with HSV-1 5·10^6, 10 mg/kg po from 72 h pi
[17] = day 14, with HSV-1 1·10^8, 10 mg/kg po from 72 h pi
[18] = day 14, with HSV-1 5·10^6, 10 mg/kg po from 0 h pi
[19] = day 14, with HSV-1 5·10^6, 10 mg/kg po from 72 h pi
[20] = day 17, with HSV-1 1·10^8, 10 mg/kg po from 72 h pi
[21] = day 17, with HSV-1 5·10^6, 10 mg/kg po from 0 h pi
[22] = day 17, with HSV-1 5·10^6, 10 mg/kg po from 72 h pi
[23] = day 19, with HSV-1 1·10^8, 10 mg/kg po from 72 h pi
[24] = day 19, with HSV-1 5·10^6, 10 mg/kg po from 0 h pi
[25] = day 19, with HSV-1 5·10^6, 10 mg/kg po from 72 h pi

Structure (SMILES): Cc1nc(N(C)C(=O)Cc2ccc(-c3cc(F)ccc3F)cc2)sc1[S@@](C)(=N)=O [Example 7(−), (−)-(S)-2-(2′,5′-Difluoro-[1,1′-biphenyl]-4-yl)-N-methyl-N-(4-methyl-5-(S-methylsulfonimidoyl)thiazol-2-yl)acetamide]
- Median tumor volume - Left tumors (CT26 tumor; [2]): 0 mm^3
- Median tumor volume - Right tumors (CT26 tumor; [2]): 0 mm^3
- Median tumor volume - Right tumors (CT26 tumor; day 0, with HSV-1 5·10^6 + aPD-1 + aCTLA4, 10 mg/kg po from 72 h pi): 0 mm^3
- Median tumor volume - Left tumors (CT26 tumor; day 0, with HSV-1 5·10^6 + aPD-1 + aCTLM, 10 mg/kg po from 72 h pi): 0 mm^3
- Median tumor volume - Left tumors (CT26 tumor; [3]): 0 mm^3
- Median tumor volume - Right tumors (CT26 tumor; [3]): 0 mm^3
- Median tumor volume - Left tumors (CT26 tumor; [4]): 0 mm^3
- Median tumor volume - Right tumors (CT26 tumor; [4]): 0 mm^3
- Median tumor volume - Left tumors (CT26 tumor; [5]): 18.17 mm^3
- Median tumor volume - Right tumors (CT26 tumor; [5]): 16.55 mm^3
- Median tumor volume - Right tumors (CT26 tumor; day 5, with HSV-1 5·10^6 + aPD-1 + aCTLA4, 10 mg/kg po from 72 h pi): 16.235 mm^3
- Median tumor volume - Left tumors (CT26 tumor; day 5, with HSV-1 5·10^6 + aPD-1 + aCTLM, 10 mg/kg po from 72 h pi): 14.66 mm^3
- Median tumor volume - Left tumors (CT26 tumor; [6]): 15.755 mm^3
- Median tumor volume - Right tumors (CT26 tumor; [6]): 16.705 mm^3
- Median tumor volume - Left tumors (CT26 tumor; [7]): 14.155 mm^3
- Median tumor volume - Right tumors (CT26 tumor; [7]): 17.665 mm^3
- Median tumor volume - Left tumors (CT26 tumor; [8]): 23.55 mm^3
- Median tumor volume - Right tumors (CT26 tumor; [8]): 39.735 mm^3
- Median tumor volume - Right tumors (CT26 tumor; day 7, with HSV-1 5·10^6 + aPD-1 + aCTLA4, 10 mg/kg po from 72 h pi): 31.03 mm^3
- Median tumor volume - Left tumors (CT26 tumor; day 7, with HSV-1 5·10^6 + aPD-1 + aCTLM, 10 mg/kg po from 72 h pi): 18.32 mm^3
- Median tumor volume - Left tumors (CT26 tumor; [9]): 21.61 mm^3
- Median tumor volume - Right tumors (CT26 tumor; [9]): 25.5 mm^3
- Median tumor volume - Left tumors (CT26 tumor; [10]): 22.85 mm^3
- Median tumor volume - Right tumors (CT26 tumor; [10]): 36.435 mm^3
- Median tumor volume - Left tumors (CT26 tumor; [11]): 33.055 mm^3
- Median tumor volume - Right tumors (CT26 tumor; [11]): 74.725 mm^3
- Median tumor volume - Right tumors (CT26 tumor; day 10, with HSV-1 5·10^6 + aPD-1 + aCTLA4, 10 mg/kg po from 72 h pi): 72.935 mm^3
- Median tumor volume - Left tumors (CT26 tumor; day 10, with HSV-1 5·10^6 + aPD-1 + aCTLM, 10 mg/kg po from 72 h pi): 47.345 mm^3
- Median tumor volume - Left tumors (CT26 tumor; [12]): 43.385 mm^3
- Median tumor volume - Right tumors (CT26 tumor; [12]): 43.32 mm^3
- Median tumor volume - Left tumors (CT26 tumor; [13]): 55.18 mm^3
- Median tumor volume - Right tumors (CT26 tumor; [13]): 45.605 mm^3
- Median tumor volume - Left tumors (CT26 tumor; [14]): 92.98 mm^3
- Median tumor volume - Right tumors (CT26 tumor; [14]): 115.17 mm^3
- Median tumor volume - Right tumors (CT26 tumor; day 12, with HSV-1 5·10^6 + aPD-1 + aCTLA4, 10 mg/kg po from 72 h pi): 94.56 mm^3
- Median tumor volume - Left tumors (CT26 tumor; day 12, with HSV-1 5·10^6 + aPD-1 + aCTLM, 10 mg/kg po from 72 h pi): 58.12 mm^3
- Median tumor volume - Left tumors (CT26 tumor; [15]): 73.31 mm^3
- Median tumor volume - Right tumors (CT26 tumor; [15]): 48.78 mm^3
- Median tumor volume - Left tumors (CT26 tumor; [16]): 121.82 mm^3
- Median tumor volume - Right tumors (CT26 tumor; [16]): 76.655 mm^3
- Median tumor volume - Left tumors (CT26 tumor; [17]): 224.29 mm^3
- Median tumor volume - Right tumors (CT26 tumor; [17]): 142.49 mm^3
- Median tumor volume - Right tumors (CT26 tumor; day 14, with HSV-1 5·10^6 + aPD-1 + aCTLA4, 10 mg/kg po from 72 h pi): 105.02 mm^3
- Median tumor volume - Left tumors (CT26 tumor; day 14, with HSV-1 5·10^6 + aPD-1 + aCTLM, 10 mg/kg po from 72 h pi): 71.44 mm^3
- Median tumor volume - Left tumors (CT26 tumor; [18]): 112.98 mm^3
- Median tumor volume - Right tumors (CT26 tumor; [18]): 39.01 mm^3
- Median tumor volume - Left tumors (CT26 tumor; [19]): 141.445 mm^3
- Median tumor volume - Right tumors (CT26 tumor; [19]): 86.87 mm^3
- Median tumor volume - Left tumors (CT26 tumor; [20]): 348.78 mm^3
- Median tumor volume - Right tumors (CT26 tumor; [20]): 93.34 mm^3
- Median tumor volume - Right tumors (CT26 tumor; day 17, with HSV-1 5·10^6 + aPD-1 + aCTLA4, 10 mg/kg po from 72 h pi): 60.17 mm^3
- Median tumor volume - Left tumors (CT26 tumor; day 17, with HSV-1 5·10^6 + aPD-1 + aCTLM, 10 mg/kg po from 72 h pi): 66.86 mm^3
- Median tumor volume - Left tumors (CT26 tumor; [21]): 169.68 mm^3
- Median tumor volume - Right tumors (CT26 tumor; [21]): 60.71 mm^3
- Median tumor volume - Left tumors (CT26 tumor; [22]): 219.98 mm^3
- Median tumor volume - Right tumors (CT26 tumor; [22]): 99.21 mm^3
- Median tumor volume - Left tumors (CT26 tumor; [23]): 352.82 mm^3
- Median tumor volume - Right tumors (CT26 tumor; [23]): 100 mm^3
- Median tumor volume - Right tumors (CT26 tumor; day 19, with HSV-1 5·10^6 + aPD-1 + aCTLA4, 10 mg/kg po from 72 h pi): 84.68 mm^3
- Median tumor volume - Left tumors (CT26 tumor; day 19, with HSV-1 5·10^6 + aPD-1 + aCTLM, 10 mg/kg po from 72 h pi): 49.84 mm^3
- Median tumor volume - Left tumors (CT26 tumor; [24]): 474.53 mm^3
- Median tumor volume - Right tumors (CT26 tumor; [24]): 72.69 mm^3
- Median tumor volume - Left tumors (CT26 tumor; [25]): 285.49 mm^3
- Median tumor volume - Right tumors (CT26 tumor; [25]): 105 mm^3
- ED50 in animal models [1]: lowest ED50 in animal models reported so far
- IC50 (HSV-1): 10 to 50 nM
- IC50 (HSV-2): 10 to 50 nM

— patent publication US20240408068A1, “Helicase Primase Inhibitors For Treating Cancer In A Combination Therapy With Oncolytic Viruses” (priority 2018, published 2024)
